{"source": "patent US8507005B2", "about": "“Particulates of a CRTH2 antagonist” (Actimis Pharmaceuticals, Inc., priority 2007, dated 2013)", "key": {"[1]": {"assay": "Thermogravimetric analysis (thermal stability)", "format": "physicochemical", "conditions": "TGA, heating rate 20° C./min", "procedure": "The thermogravimetric analysis was also conducted on a Mettler 850, TA 2920. Samples were placed into a ceramic or aluminum sample pan. A heating rate of 20° C./min was employed over a temperature range from 20° C. to 600° C."}, "[2]": {"assay": "Solubility of saturated solutions determined by HPLC", "format": "physicochemical", "procedure": "Saturated solutions of {4,6-bis(dimethylamino)-2-(4-(4-(trifluoromethyl)-benzamido)benzyl)pyrimidin-5-yl}acetic acid of Formula I in the solvents listed in Table 1 were prepared from the acid predominantly in Form I, at both 25 and 50° C."}, "DP1": {"target": "T1, DP1 (Homo sapiens, UniProt Q13258)", "T1 sequence (Q13258 1-359)": "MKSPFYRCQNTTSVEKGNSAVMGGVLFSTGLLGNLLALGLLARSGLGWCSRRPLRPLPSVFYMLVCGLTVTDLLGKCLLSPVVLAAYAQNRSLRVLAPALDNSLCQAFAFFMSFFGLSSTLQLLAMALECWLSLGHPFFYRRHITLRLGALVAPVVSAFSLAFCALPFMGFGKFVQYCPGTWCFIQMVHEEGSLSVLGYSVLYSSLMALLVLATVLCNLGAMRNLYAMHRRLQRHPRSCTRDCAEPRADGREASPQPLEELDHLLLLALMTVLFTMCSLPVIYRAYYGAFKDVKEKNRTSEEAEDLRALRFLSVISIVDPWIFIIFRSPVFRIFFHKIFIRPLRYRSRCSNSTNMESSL", "assay": "Competitive radioligand (3H-PGD2) binding assay, DP1-transfected cells", "conditions": "competition with 1 nM 3H-PGD2, DP1-transfected cells, FIG. 11", "procedure": "The binding affinity and selectivity of the amine salts of 4,6-bis(dimethylamino)-2-(4-(4-(trifluoromethyl)benzamido)benzyl)pyrimidin-5-yl}acetic acid provided herein were evaluated using a competitive radioligand binding assay with stably-transfected cell lines expressing CRTH2 or DP1.\nProstaglandin D2 and 13,14-dihydro-15-keto PGD2 were obtained from Cayman Chemical (Ann Arbor, Mich.). Radiolabelled PGD2 (5,6,8,9,12,14,15-^3H(N)) with a specific activity of 160 Ci/mmol was obtained from PerkinElmer (Boston, Mass.). Cell culture medium RPMI 1640, HEPES buffer, phosphate buffered saline (PBS), L-glutamine, and penicillin-streptomycin solution were obtained from Mediatech Inc. (Herndon, Va.). Fetal calf serum (FCS) was obtained from Cambrex (Walkersville, Md.). Puromycin was obtained from Invitrogen (San Diego, Calif.). Poly(ethyleneimine) (PEI) was obtained from Acros Organics (Morris Plains, N.J.). […]\nRadioligand binding analyses were performed according to the methods of Sugimoto et al. (J. Pharm. Exp. Therap. 2003, 305, 347-352; Eur. J. Pharmacol. 2005, 524, 30-37). […] Scintillant (50 μL; Microscint™ 20, Perkin Elmer, Boston, Mass.) was added to each well and the radioactivity was counted on a TopCount (Packard Bioscience, Meriden, Conn.). […]"}, "CRTH2": {"target": "T2, CRTH2 (Homo sapiens, UniProt Q9Y5Y4)", "T2 construct": "expressed in transfected cells", "T2 sequence (Q9Y5Y4 1-395)": "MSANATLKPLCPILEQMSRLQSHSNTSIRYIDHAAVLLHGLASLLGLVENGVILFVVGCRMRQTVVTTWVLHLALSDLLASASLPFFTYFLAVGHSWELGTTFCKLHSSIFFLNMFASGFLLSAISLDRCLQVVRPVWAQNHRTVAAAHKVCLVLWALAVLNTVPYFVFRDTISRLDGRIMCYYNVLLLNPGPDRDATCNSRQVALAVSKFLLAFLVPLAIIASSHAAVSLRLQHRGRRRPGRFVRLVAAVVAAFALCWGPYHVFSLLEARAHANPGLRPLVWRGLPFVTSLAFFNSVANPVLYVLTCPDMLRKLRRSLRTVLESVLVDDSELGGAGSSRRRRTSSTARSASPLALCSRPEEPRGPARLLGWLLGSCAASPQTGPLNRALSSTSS", "assay": "Competitive radioligand (3H-PGD2) binding assay, CRTH2-transfected cells", "conditions": "competition with 1 nM 3H-PGD2, CRTH2-transfected cells, FIG. 10", "source_text": "Prostaglandin D2 and 13,14-dihydro-15-keto PGD2 were obtained from Cayman Chemical (Ann Arbor, Mich.). Radiolabelled PGD2 (5,6,8,9,12,14,15-^3H(N)) with a specific activity of 160 Ci/mmol was obtained from PerkinElmer (Boston, Mass.). Cell culture medium RPMI 1640, HEPES buffer, phosphate buffered saline (PBS), L-glutamine, and penicillin-streptomycin solution were obtained from Mediatech Inc. (Herndon, Va.). Fetal calf serum (FCS) was obtained from Cambrex (Walkersville, Md.). Puromycin was obtained from Invitrogen (San Diego, Calif.). […]\nThe surface expression of CRTH2 on the transfected cell lines was monitored periodically during culture and prior to each competitive radioligand binding assay. […] The cells were then washed in 2 mL of FACS buffer (PBS containing 1% BSA (Fraction V) and 0.1% sodium azide. The cells were subsequently incubated on ice with a FITC-conjugated anti-rat antibody (goat anti-rat Ig-FITC). After washed with cold FACS buffer, the cells were analyzed using a FACScan II analyzer and CellQuest software, both from Becton Dickinson (Mountain View, Calif.). […]"}}, "note": "Where two headings read alike, the source gives them in different places."}
{"smiles": "CN(C)c1nc(Cc2ccc(NC(=O)c3ccc(C(F)(F)F)cc3)cc2)nc(N(C)C)c1CC(=O)O", "note": "[Form I, {4,6-bis(dimethylamino)-2-(4-(4-(trifluoromethyl)benzamido)benzyl)pyrimidin-5-yl}acetic acid]", "values": [{"measurement": "decomposition temperature (no significant weight loss until decomposition)", "setting": "[1]", "value": "around 200 °C"}, {"measurement": "solubility", "setting": "[2]; water, at room temperature, read-out: aqueous solubility", "value": "~3", "unit": "µg/mL"}]}
{"smiles": "CN(C)c1nc(Cc2ccc(NC(=O)c3ccc(C(F)(F)F)cc3)cc2)nc(N(C)C)c1CC(=O)O", "note": "[Formula I, {4,6-bis(dimethylamino)-2-(4-(4-(trifluoro-methyl)benzamido)benzyl)pyrimidin-5-yl}acetic acid]", "values": [{"measurement": "binding selectivity for CRTH2 versus DP1", "setting": "DP1", "value": "binds selectively to CRTH2"}, {"measurement": "binding affinity for CRTH2", "setting": "CRTH2", "value": "high affinity"}, {"measurement": "solubility", "setting": "[2]; organic solvent or mixture, thermodynamic from solid, 1,4-Dioxane, 25° C., read-out: Solubility", "value": 3370, "unit": "µg/mL"}, {"measurement": "solubility", "setting": "[2]; organic solvent or mixture, thermodynamic from solid, 1,4-Dioxane, 50° C., read-out: Solubility", "value": 9830, "unit": "µg/mL"}, {"measurement": "solubility", "setting": "[2]; organic solvent or mixture, thermodynamic from solid, 1-Propanol, 25° C., read-out: Solubility", "value": 790, "unit": "µg/mL"}, {"measurement": "solubility", "setting": "[2]; organic solvent or mixture, thermodynamic from solid, 1-Propanol, 50° C., read-out: Solubility", "value": 2410, "unit": "µg/mL"}, {"measurement": "solubility", "setting": "[2]; organic solvent or mixture, thermodynamic from solid, 2-Methoxyethanol, 25° C., read-out: Solubility", "value": 5350, "unit": "µg/mL"}, {"measurement": "solubility", "setting": "[2]; organic solvent or mixture, thermodynamic from solid, 2-Methoxyethanol, 50° C., read-out: Solubility", "value": 8550, "unit": "µg/mL"}, {"measurement": "solubility", "setting": "[2]; organic solvent or mixture, thermodynamic from solid, Acetone, 25° C., read-out: Solubility", "value": 2620, "unit": "µg/mL"}, {"measurement": "solubility", "setting": "[2]; organic solvent or mixture, thermodynamic from solid, Acetone, 50° C., read-out: Solubility", "value": 3340, "unit": "µg/mL"}, {"measurement": "solubility", "setting": "[2]; organic solvent or mixture, thermodynamic from solid, DMSO, 25° C., read-out: Solubility", "value": "> 50000", "unit": "µg/mL"}, {"measurement": "solubility", "setting": "[2]; organic solvent or mixture, thermodynamic from solid, DMSO, 50° C., read-out: Solubility", "value": "> 50000", "unit": "µg/mL"}, {"measurement": "solubility", "setting": "[2]; organic solvent or mixture, thermodynamic from solid, Ethanol, 25° C., read-out: Solubility", "value": 1090, "unit": "µg/mL"}, {"measurement": "solubility", "setting": "[2]; organic solvent or mixture, thermodynamic from solid, Ethanol, 50° C., read-out: Solubility", "value": 2250, "unit": "µg/mL"}, {"measurement": "solubility", "setting": "[2]; organic solvent or mixture, thermodynamic from solid, Ethyl acetate, 25° C., read-out: Solubility", "value": 530, "unit": "µg/mL"}, {"measurement": "solubility", "setting": "[2]; organic solvent or mixture, thermodynamic from solid, Ethyl acetate, 50° C., read-out: Solubility", "value": 1270, "unit": "µg/mL"}, {"measurement": "solubility", "setting": "[2]; organic solvent or mixture, thermodynamic from solid, Ethyl formate, 25° C., read-out: Solubility", "value": 390, "unit": "µg/mL"}, {"measurement": "solubility", "setting": "[2]; organic solvent or mixture, thermodynamic from solid, Ethyl formate, 50° C., read-out: Solubility", "value": 1510, "unit": "µg/mL"}, {"measurement": "solubility", "setting": "[2]; organic solvent or mixture, thermodynamic from solid, Isobutyl acetate, 25° C., read-out: Solubility", "value": 200, "unit": "µg/mL"}, {"measurement": "solubility", "setting": "[2]; organic solvent or mixture, thermodynamic from solid, Isobutyl acetate, 50° C., read-out: Solubility", "value": 830, "unit": "µg/mL"}, {"measurement": "solubility", "setting": "[2]; organic solvent or mixture, thermodynamic from solid, Isopropanol, 25° C., read-out: Solubility", "value": 770, "unit": "µg/mL"}, {"measurement": "solubility", "setting": "[2]; organic solvent or mixture, thermodynamic from solid, Isopropanol, 50° C., read-out: Solubility", "value": 1960, "unit": "µg/mL"}, {"measurement": "solubility", "setting": "[2]; organic solvent or mixture, thermodynamic from solid, Isopropyl acetate, 25° C., read-out: Solubility", "value": 270, "unit": "µg/mL"}, {"measurement": "solubility", "setting": "[2]; organic solvent or mixture, thermodynamic from solid, Isopropyl acetate, 50° C., read-out: Solubility", "value": 780, "unit": "µg/mL"}, {"measurement": "solubility", "setting": "[2]; organic solvent or mixture, thermodynamic from solid, MIBK, 25° C., read-out: Solubility", "value": 540, "unit": "µg/mL"}, {"measurement": "solubility", "setting": "[2]; organic solvent or mixture, thermodynamic from solid, MIBK, 50° C., read-out: Solubility", "value": 1800, "unit": "µg/mL"}, {"measurement": "solubility", "setting": "[2]; organic solvent or mixture, thermodynamic from solid, MTBE, 25° C., read-out: Solubility", "value": 90, "unit": "µg/mL"}, {"measurement": "solubility", "setting": "[2]; organic solvent or mixture, thermodynamic from solid, MTBE, 50° C., read-out: Solubility", "value": 410, "unit": "µg/mL"}, {"measurement": "solubility", "setting": "[2]; organic solvent or mixture, thermodynamic from solid, Methanol, 25° C., read-out: Solubility", "value": 2230, "unit": "µg/mL"}, {"measurement": "solubility", "setting": "[2]; organic solvent or mixture, thermodynamic from solid, Methanol, 50° C., read-out: Solubility", "value": 3040, "unit": "µg/mL"}, {"measurement": "solubility", "setting": "[2]; organic solvent or mixture, thermodynamic from solid, Toluene, 50° C., read-out: Solubility", "value": 30, "unit": "µg/mL"}, {"measurement": "solubility", "setting": "[2]; organic solvent or mixture, thermodynamic from solid, n-Butanol, 25° C., read-out: Solubility", "value": 790, "unit": "µg/mL"}, {"measurement": "solubility", "setting": "[2]; organic solvent or mixture, thermodynamic from solid, n-Butanol, 50° C., read-out: Solubility", "value": 2110, "unit": "µg/mL"}, {"measurement": "solubility", "setting": "[2]; saturated solution in DMF, organic solvent or mixture, thermodynamic from solid, DMF, 25° C., read-out: Solubility", "value": "> 50000", "unit": "µg/mL"}, {"measurement": "solubility", "setting": "[2]; saturated solution in DMF, organic solvent or mixture, thermodynamic from solid, DMF, 50° C., read-out: Solubility", "value": "> 50000", "unit": "µg/mL"}, {"measurement": "solubility", "setting": "[2]; saturated solution in MEK, organic solvent or mixture, thermodynamic from solid, MEK, 25° C., read-out: Solubility", "value": 1980, "unit": "µg/mL"}, {"measurement": "solubility", "setting": "[2]; saturated solution in MEK, organic solvent or mixture, thermodynamic from solid, MEK, 50° C., read-out: Solubility", "value": 4260, "unit": "µg/mL"}, {"measurement": "solubility", "setting": "[2]; saturated solution in THF, organic solvent or mixture, thermodynamic from solid, THF, 25° C., read-out: Solubility", "value": 11300, "unit": "µg/mL"}, {"measurement": "solubility", "setting": "[2]; saturated solution in THF, organic solvent or mixture, thermodynamic from solid, THF, 50° C., read-out: Solubility", "value": 32700, "unit": "µg/mL"}, {"measurement": "solubility", "setting": "[2]; saturated solution in acetonitrile, organic solvent or mixture, thermodynamic from solid, Acetonitrile, 25° C., read-out: Solubility", "value": 240, "unit": "µg/mL"}, {"measurement": "solubility", "setting": "[2]; saturated solution in acetonitrile, organic solvent or mixture, thermodynamic from solid, Acetonitrile, 50° C., read-out: Solubility", "value": 940, "unit": "µg/mL"}, {"measurement": "solubility", "setting": "[2]; saturated solution in chloroform, organic solvent or mixture, thermodynamic from solid, Chloroform, 25° C., read-out: Solubility", "value": 170, "unit": "µg/mL"}, {"measurement": "solubility", "setting": "[2]; saturated solution in chloroform, organic solvent or mixture, thermodynamic from solid, Chloroform, 50° C., read-out: Solubility", "value": 350, "unit": "µg/mL"}, {"measurement": "solubility", "setting": "[2]; saturated solution in dichloromethane, organic solvent or mixture, thermodynamic from solid, Dichloromethane, 25° C., read-out: Solubility", "value": 70, "unit": "µg/mL"}, {"measurement": "solubility", "setting": "[2]; thermodynamic from solid, Water, 50° C., read-out: Solubility", "value": 20, "unit": "µg/mL"}]}
